Consider 10 substances from patent publication US20260258425A1, “MALT1 TUMOR INHIBITOR, PHARMACEUTICAL COMPOSITION CONTAINING THE SAME, AND APPLICATIONS THEREOF” (XZYP (BEIJING) BIOTECH CO., LTD, priority 2023, published 2026).

“Also recorded” adds a separate entry of the source.

The test system of the first series is ABC DLBCL cells.
Test: not given
The note with it: background statement; cited from earlier work.
Regarding zVRPR-FMK, the “toxicity in ABC DLBCL cells” value was “induces toxicity”.

The next series has as its system MALT1. The experiment in a line: Western blot of MALT1 expression in E0771 cells after ASO transfection with Lipofectamine 3000. The format is cell-based, mouse. The following applies: ASO final concentration 50 nM, 5 μL Lipofectamine 3000, 48 hours after transfection. An excerpt: S1. Considering the specificity between the antisense nucleic acid and the target nucleic acid and the hairpin-like structure that may be formed by the base complementarity within the nucleotide sequence of the antisense nucleic acid, the nucleotide sequence of the antisense nucleic acid needs to target the amino acid residues at positions 81 and/or 82 of the death domain (DD) of MALT1; S2. Considering the stability of hybridization and the membrane permeability of the antisense oligonucleotide, select the length of the antisense oligonucleotide, which ranges from 15 to 40 bases; S3. Considering the affinity of the antisense oligonucleotide for the target sequence, since the affinity of GC base pairs is greater than that between AU, increasing the ratio of GC base pairs to AU base pairs in the antisense oligonucleotide can appropriately reduce the length of the antisense oligonucleotide; S4. Set a control, which can be missense or reverse; S5. Use the designed antisense oligonucleotides to inhibit the expression of the same target sequence MALT-1 mRNA, and screen the antisense oligonucleotide with the best inhibitory effect. The specific steps for screening the antisense oligonucleotide with the best inhibitory effect are as follows: • a. […] 2×10^5 E0771 cells into each well of a 12-well plate and incubate overnight; • b. On the day after operation a, transfect the corresponding ASO drug with 5 μL of Lipofectamine™ 3000 until its final concentration is 50 nM; • c. 6 hours after operation b, replace the serum-free medium with medium containing 10% serum; • d. 24 hours after operation c, replace the serum-free medium again; • e. 48 hours after operation d, harvest the obtained protein and perform Western blot experiment. The Western blot results of antisense oligonucleotides targeting E0771 cells after transfection with Lipofectamine™ 3000 are shown in FIG. 5: in this figure, 48 hours after transfection with Lipofectamine™ 3000, 5 μL of Lipofectamine™ 3000 was added to each well of the 12-well plate.
On to “AAGTTCATGAGCCTTGGCCC (antisense AAGUUCAUGAGCCUUGGCCC; listed as RNA, chemistry not given here) [ASO C]”, for which the “inhibition of MALT1 expression (Western blot band)” value is “good inhibitory results; also recorded: good inhibitory effects”.
On the same count and under the same terms, next, “AGCCTTGGCCCACTGTAGATT (antisense AGCCUUGGCCCACUGUAGAUU; listed as RNA, chemistry not given here) [ASO A]”: “good inhibitory results; also recorded: good inhibitory effects”; “CAAGAGCAGATTTATTTTGT (antisense CAAGAGCAGAUUUAUUUUGU; listed as RNA, chemistry not given here) [ASO K]”: “good inhibitory results; also recorded: good inhibitory effects”.
Same read-out and setting: next, “GAGGCAGTGCTTGGGAAGGTC (antisense GAGGCAGUGCUUGGGAAGGUC; listed as RNA, chemistry not given here) [ASO I]”: “good inhibitory results; also recorded: good inhibitory effects”.
Same read-out and setting: next, “GGTTTGTGGACTATACTTGT (antisense GGUUUGUGGACUAUACUUGU; listed as RNA, chemistry not given here) [ASO25]”: “obvious inhibitory results; also recorded: obvious inhibitory effects”; “GTCCAGCCAACACTGCCTTG (antisense GUCCAGCCAACACUGCCUUG; listed as RNA, chemistry not given here) [ASO J]”: “good inhibitory results; also recorded: good inhibitory effects”; “TAGAGGCAGTGCTTGGGAAG (antisense UAGAGGCAGUGCUUGGGAAG; listed as RNA, chemistry not given here) [ASO H]”: “good inhibitory results; also recorded: good inhibitory effects”.
Consider “TCATGAGCCTTGGCCCACTG (antisense UCAUGAGCCUUGGCCCACUG; listed as RNA, chemistry not given here) [ASO B]”, for which the “inhibition of MALT1 expression (Western blot band)” value is given as “obvious inhibitory results; also recorded: obvious inhibitory effects”.
Same read-out and setting: with “TTGTGGACTATACTTGTGTA (antisense UUGUGGACUAUACUUGUGUA; listed as RNA, chemistry not given here) [ASO G]” the entry was “good inhibitory results; also recorded: good inhibitory effects”.

A further series has as its system germinal center B-cell (GCB) type DLBCL cells.
Test: not given
The following applies: background statement; cells independent of BCR signaling; cited from earlier work.
Regarding zVRPR-FMK, the “sensitivity of GCB type DLBCL cells to the inhibitor” value is reported as “insensitive”.
